This note sets out measurements from ChEMBL document CHEMBL1201862, “PubChem BioAssay data set” (2004).

Some test systems named below: 786-0; ACHN; BT-549; EKVX; HCT-15; HT-29; Hs-578T; K562; LOX IMVI; MDA-MB-435; NCI-H460; NCI-H522; PC-3; SF-268; T47D; UACC-257; UO-31; IGROV-1; SK-MEL-5; UACC-62.
Holding throughout (test): NCI-60 cell line screen, 48 h

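A five-concentration, 48-hour dose response in 96-well plates underlies each endpoint, interpolated linearly between surrounding concentrations. Abbreviation: GI50, concentration required for 50% inhibition of growth.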 Active and inactive are the calls of the source. Rule as the data show it: active = GI50 up to about 1.1 µM and inactive = higher.

Regarding `CCOC(=O)N1CCN(c2c(N)nc(C)nc2O)CC1`, the GI50 with 786-0 is > 100 µM (inactive); in the experiment with ACHN, > 100 µM (inactive); with BT-549 it was > 100 µM (inactive); in the experiment with EKVX, > 100 µM (inactive); in the experiment with HCT-15, over 100 µM; in the experiment on HT-29 it was > 100 µM (inactive). Also, the GI50 with Hs-578T, in the experiment with K562, in the experiment on LOX IMVI, in the experiment on MDA-MB-435, in the experiment with NCI-H460 and in the experiment on NCI-H522 was > 100 µM (inactive) each time. For the same molecule, the GI50 in the experiment with PC-3, with SF-268, with T47D, in the experiment with UACC-257 and in the experiment on UO-31 was > 100 µM (inactive) in each case.

Regarding `CC1=NN(C(=O)CC(=O)Nc2ccccc2C)C(=O)C1/N=N/c1ccc(C(=O)O)cc1` (configuration not stated), the GI50 with 786-0 is > 100 µM (inactive); in the experiment with ACHN it was > 100 µM (inactive); with BT-549 it was > 100 µM (inactive); in the experiment on EKVX, > 100 µM (inactive); with HCT-15, over 100 µM; in the experiment on HT-29, > 100 µM (inactive). Besides, the GI50 with Hs-578T is 68.9 µM (inactive); in the experiment with IGROV-1 it was > 100 µM (inactive); in the experiment on K562, > 100 µM (inactive); in the experiment with LOX IMVI it was 79.3 µM (inactive); in the experiment on MDA-MB-435 it was > 100 µM (inactive); in the experiment with NCI-H460 it was > 100 µM (inactive). Besides, the GI50 is > 100 µM (inactive) with NCI-H522; > 100 µM (inactive) with PC-3; > 100 µM (inactive) in the experiment with SF-268; > 100 µM (inactive) in the experiment with SK-MEL-5; 44.1 µM (inactive) in the experiment with T47D; > 100 µM (inactive) in the experiment on UACC-257. Also, the GI50 in the experiment on UACC-62 was > 100 µM (inactive); in the experiment on UO-31, 48.6 µM (inactive).

Turning to `CCOC(=O)c1c2c(n(-c3ccc(C)cc3)c1C)-c1ccccc1C(=O)C2(C(=O)OCC)C(=O)OCC`, the GI50 in the experiment on 786-0 is 50.6 µM (inactive); with ACHN it was 44.3 µM (inactive); in the experiment on BT-549, 24.8 µM (inactive); with EKVX it was 32.4 µM (inactive); with HCT-15, 36.1 µM; with HT-29, 27.3 µM (inactive). Besides, the GI50 was 25.3 µM (inactive) in the experiment on Hs-578T; 30.3 µM (inactive) in the experiment with IGROV-1; 14.5 µM (inactive) in the experiment with K562; 33.8 µM (inactive) in the experiment on LOX IMVI; 29.1 µM (inactive) with MDA-MB-435; 35.5 µM (inactive) in the experiment on NCI-H460. Moreover, the GI50 is 25.1 µM (inactive) in the experiment on NCI-H522; 33.7 µM (inactive) with PC-3; 34.3 µM (inactive) with SF-268; 19.2 µM (inactive) in the experiment on SK-MEL-5; 20.7 µM (inactive) with T47D; 33.8 µM (inactive) with UACC-257. Also, the values for the GI50 with UACC-62 and in the experiment on UO-31 were 27.3 µM (inactive) and 23.1 µM (inactive), respectively.

As to `NC(=O)c1cc(N2CC2)c([N+](=O)[O-])cc1[N+](=O)[O-]` [TRETAZICAR], the GI50 was > 100 µM (inactive) in the experiment with 786-0; > 100 µM (inactive) in the experiment on ACHN; > 100 µM (inactive) in the experiment on BT-549; > 100 µM (inactive) in the experiment with EKVX; over 145 µM with HCT-15; > 100 µM (inactive) in the experiment with HT-29. Besides, the GI50 was > 200 µM (inactive) with Hs-578T; > 100 µM (inactive) with IGROV-1; > 100 µM (inactive) with K562; > 100 µM (inactive) with LOX IMVI; > 200 µM (inactive) in the experiment on MDA-MB-435; 13 µM (inactive) in the experiment with NCI-H460. Besides, the GI50 with NCI-H522 is > 100 µM (inactive); in the experiment with PC-3, > 200 µM (inactive); in the experiment on SF-268 it was > 100 µM (inactive); with SK-MEL-5 it was > 200 µM (inactive); in the experiment on T47D, > 200 µM (inactive); with UACC-257, > 100 µM (inactive). The GI50 in the experiment with UACC-62 and with UO-31 was > 100 µM (inactive) each time.

Take `Cc1c(S(=O)(=O)N/C(=N\O)Nc2ccc(Cl)cc2)sc2ccc(Cl)cc12`: the GI50 is 17.5 µM (inactive) with 786-0; 15.2 µM (inactive) in the experiment with ACHN; 17.4 µM (inactive) in the experiment on BT-549; 12.3 µM (inactive) in the experiment on EKVX; 16.6 µM in the experiment on HCT-15; 19.3 µM (inactive) with HT-29. For the same molecule, the GI50 with Hs-578T is 18.8 µM (inactive); with IGROV-1 it was 12.7 µM (inactive); in the experiment on K562 it was 31 µM (inactive); with LOX IMVI, 17 µM (inactive); in the experiment with MDA-MB-435, 16.3 µM (inactive); in the experiment on NCI-H460, 24.8 µM (inactive). Further, the GI50 was 9.91 µM (inactive) in the experiment with NCI-H522; 17.1 µM (inactive) with PC-3; 18.1 µM (inactive) in the experiment on SF-268; 14.1 µM (inactive) in the experiment with SK-MEL-5; 19 µM (inactive) in the experiment on T47D; 16.4 µM (inactive) in the experiment with UACC-257. Also, the GI50 with UACC-62 was 16.1 µM (inactive); with UO-31, 35.8 µM (inactive).

Turning to `CN(C)c1c(C2OC(CO)C(O)C2O)c(=O)c1=O` (configuration not stated), the GI50 is > 100 µM (inactive) in the experiment on 786-0; > 100 µM (inactive) in the experiment on ACHN; > 100 µM (inactive) in the experiment with BT-549; > 100 µM (inactive) in the experiment with EKVX; over 100 µM in the experiment with HCT-15; > 100 µM (inactive) in the experiment with HT-29. Moreover, the GI50 in the experiment with Hs-578T, in the experiment on IGROV-1, in the experiment on K562, in the experiment with LOX IMVI, with MDA-MB-435 and with NCI-H460 was > 100 µM (inactive) in each case. In addition, the GI50 with NCI-H522, in the experiment on PC-3, in the experiment on SF-268, in the experiment on T47D, in the experiment with UACC-257 and in the experiment on UACC-62 was > 100 µM (inactive) throughout. For the same molecule, the GI50 in the experiment on UO-31 is > 100 µM (inactive).

With `COc1ccc2nc3ccc(OC)cc3c([S+]([O-])CCCl)c2c1` (configuration not stated), the GI50 in the experiment with 786-0 was 1.76 µM (inactive); in the experiment on ACHN it was 2.18 µM (inactive); in the experiment with BT-549, 15.1 µM (inactive); with EKVX, 10.5 µM (inactive); with HCT-15 it was 2.65 µM; in the experiment on HT-29, 2.04 µM (inactive). Also, the GI50 in the experiment on Hs-578T was 2.24 µM (inactive); in the experiment on IGROV-1, 2.48 µM (inactive); in the experiment with LOX IMVI it was 2.4 µM (inactive); in the experiment with MDA-MB-435 it was 3.73 µM (inactive); in the experiment on NCI-H460, 26.4 µM (inactive); with NCI-H522 it was 1.67 µM (inactive). For the same molecule, the GI50 was 11.2 µM (inactive) with PC-3; 6.76 µM (inactive) with SF-268; 14.9 µM (inactive) with SK-MEL-5; 2.04 µM (inactive) in the experiment with T47D; 2.21 µM (inactive) in the experiment on UACC-257; 15.8 µM (inactive) in the experiment with UACC-62. In addition, in the experiment on UO-31, the GI50 is 2.28 µM (inactive).

Turning to `CCN1C(=S)n2cccc2C1CC(=O)c1ccc(Cl)cc1` (configuration not stated), the GI50 is > 100 µM (inactive) with 786-0; > 100 µM (inactive) with ACHN; 64.9 µM (inactive) in the experiment on BT-549; 32.3 µM (inactive) in the experiment with EKVX; 51.8 µM with HCT-15; 68.7 µM (inactive) in the experiment on HT-29. In addition, the GI50 in the experiment with Hs-578T is > 100 µM (inactive); in the experiment on IGROV-1, > 100 µM (inactive); with K562, 53.7 µM (inactive); with LOX IMVI, 58.9 µM (inactive); in the experiment with MDA-MB-435, 56.1 µM (inactive); in the experiment on NCI-H460 it was 34.7 µM (inactive). Moreover, the GI50 with NCI-H522 was 15.5 µM (inactive); in the experiment with PC-3, 40.2 µM (inactive); in the experiment on SF-268, 63.1 µM (inactive); with T47D, 56.6 µM (inactive); in the experiment on UACC-257, 18.4 µM (inactive); in the experiment on UACC-62, 62.2 µM (inactive). Further, in the experiment with UO-31, the GI50 is 42.9 µM (inactive).

For the molecule `Cc1ccsc1C(=S)Nc1ccc(Cl)c(/C=N/OC(C)C)c1`, the GI50 is 42.5 µM (inactive) in the experiment on 786-0; 25.2 µM (inactive) with ACHN; 67.9 µM (inactive) in the experiment with BT-549; 22.9 µM (inactive) in the experiment on EKVX; 15.5 µM in the experiment with HCT-15; 27.5 µM (inactive) in the experiment on HT-29. Moreover, the GI50 is 45.8 µM (inactive) in the experiment with Hs-578T; 25.8 µM (inactive) in the experiment on IGROV-1; 29.8 µM (inactive) in the experiment on LOX IMVI; 49.3 µM (inactive) with MDA-MB-435; 32.7 µM (inactive) with NCI-H460; 28.3 µM (inactive) with NCI-H522. Also, the GI50 with PC-3 was 80.7 µM (inactive); in the experiment with SF-268, 86.3 µM (inactive); in the experiment with SK-MEL-5, 25.2 µM (inactive); in the experiment with T47D, 17.8 µM (inactive); in the experiment on UACC-257, 47.9 µM (inactive); in the experiment with UACC-62, 64.1 µM (inactive). Moreover, the GI50 in the experiment on UO-31 is 21.1 µM (inactive).

Turning to `CC(NC(=O)C(Cc1ccc(OC(=O)c2ccccc2)cc1)NC(=O)OC(C)(C)C)C(=O)NCC(=O)NC(Cc1ccccc1)C(=O)NN` (configuration not stated), the GI50 in the experiment with 786-0 is > 100 µM (inactive); in the experiment on ACHN, > 100 µM (inactive); in the experiment on BT-549 it was 55.5 µM (inactive); with EKVX it was > 100 µM (inactive); in the experiment on HCT-15, over 100 µM; in the experiment with HT-29, 31 µM (inactive). The GI50 in the experiment on Hs-578T is 32.7 µM (inactive); with IGROV-1, 25.4 µM (inactive); in the experiment with K562, 20 µM (inactive); with LOX IMVI, 18.1 µM (inactive); with MDA-MB-435 it was 39 µM (inactive); with NCI-H460 it was 49.2 µM (inactive). Further, the GI50 was 29.6 µM (inactive) in the experiment with NCI-H522; 24.2 µM (inactive) with PC-3; 54.6 µM (inactive) with SF-268; 34.7 µM (inactive) in the experiment on SK-MEL-5; 62.8 µM (inactive) with T47D; 40.6 µM (inactive) with UACC-62. For the same molecule, in the experiment with UO-31, the GI50 was > 100 µM (inactive).
